Experimental data published in US20120245199A1, “[4 [4-(AMINOMETHYL-2-FLUORO-PHENYL)-PIPERIDIN-1-YL]-(1H-PYRROLO-PYRIDIN-YL)-METHANONES AND SYNTHESIS THEREOF” (SANOFI, priority 2009, published 2012).
Several values for one entry are separate records, joined by “and”; a condition that tells them apart may be missing. Identical values can stand only once. Counter-ions that a name gives are not always drawn.

Assays:
[1] = target: T1, recombinant human beta tryptase (Homo sapiens, UniProt Q15661); assay: beta-Tryptase inhibition, chromogenic enzyme assay (S2366 substrate); format: biochemical; settings: Ki calculated from IC50: Ki=IC50/(1+[Substrate]/Km), 0.5 mM S2366, room temperature
T1 construct: host or cells: yeast cells
T1 sequence (Q15661 31-275): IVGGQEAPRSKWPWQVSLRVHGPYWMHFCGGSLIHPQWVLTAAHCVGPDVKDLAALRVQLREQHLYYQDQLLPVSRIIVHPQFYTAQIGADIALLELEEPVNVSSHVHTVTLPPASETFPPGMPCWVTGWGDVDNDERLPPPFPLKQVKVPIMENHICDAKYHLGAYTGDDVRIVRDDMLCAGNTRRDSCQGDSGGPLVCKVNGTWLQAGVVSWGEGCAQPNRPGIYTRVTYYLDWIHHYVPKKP
From the text: Inhibition of this catalytic activity may be measured by the in vitro enzyme assay and the cellular assay.
Tryptase inhibition activity is confirmed using either isolated human lung tryptase or recombinant human beta tryptase expressed in yeast cells. Essentially equivalent results are obtained using isolated native enzyme or the expressed enzyme. The assay procedure employs a 96 well microplate (Costar 3590) using L-pyroglutamyl-L-prolyl-L-arginine-para-nitroanilide (S2366: Quadratech) as substrate (essentially as described by McEuen et. al. Biochem Pharm, 1996, 52, pages 331-340). Assays are performed at room temperature using 0.5 mM substrate (2×Km) and the microplate is read on a microplate reader (Beckman Biomek Plate reader) at 405 nm wavelength.
S2366 (Stock solutions of 2.5 mM).
Purified recombinant beta Tryptase Stocks of 310 μg/mL.
• Add 60 μL of diluted substrate (final concentration of 500 μM in assay buffer) to each well • Add compound in duplicates, final concentration of 20 μM, volume 20 μL • Add enzyme at a final concentration of 50 ng/mL in a volume of 20 μL • Total volume for each well is 100 μL • Agitate briefly to mix and incubate at room temp in the dark for 30 minutes • Read absorbencies at […] Each plate has the following controls: • Totals: 60 μL of substrate, 20 μL of buffer (with 0.2% final concentration of DMSO), 20 μL of enzyme • Non-specific: 60 μL of substrate, 40 μL of buffer (with 0.2% DMSO) • Totals: 60 μL of substrate, 20 μL of buffer (No DMSO), 20 μL of enzyme • Non-specific: 60 μL of substrate, 40 μL of buffer (No DMSO)
The protocol is essentially the same as above except that the compound is added in duplicates at the following final concentrations: 0.01, 0.03, 0.1, 0.3, 1, 3, 10 μM (All dilutions carried out manually). For every assay, whether single point or IC50 determination, a standard compound is used to derive IC50 for comparison. From the IC50 value, the Ki can be calculated using the following formula: Ki=IC50/(1+[Substrate]/Km).

Row | melting point [°C] | Ki [1] | SMILES
1 | 163 to 167 | – | COCCn1cc(C(=O)N2CCC(c3cc(CN)ccc3F)CC2)c2ccnc(Cl)c21 (as salt: hydrochloride) [Example 13, [4-(5-Aminomethyl-2-fluoro-phenyl)-piperidin-1-yl]-[7-chloro-1-(2-methoxy-ethyl)-1H-pyrrolo[2,3-c]pyridin-3-yl]-methanone dihydrochloride]
2 | – | 0.221 µM | NCc1ccc(F)c(C2CCN(C(=O)c3cc4cccnc4[nH]3)CC2)c1 [Example 1, [4-(5-Aminomethyl-2-fluoro-phenyl)-piperidin-1-yl]-(1H-pyrrolo[2,3-b]pyridin-2-yl)-methanone dihydrochloride]
3 | – | 0.538 µM | COCCn1c(C(=O)N2CCC(c3cc(CN)ccc3F)CC2)cc2cccnc21 [Example 2, [4-(5-Aminomethyl-2-fluoro-phenyl)-piperidin-1-yl]-[1-(2-methoxy-ethyl)-1H-pyrrolo[2,3-b]pyridin-2-yl]-methanone dihydrochloride]
4 | – | 0.915 µM | COCCn1c(C(=O)N2CCC(c3cccc(CN)c3)CC2)cc2cccnc21 [Example 3, [4-(3-Aminomethyl-phenyl)-piperidin-1-yl]-[1-(2-methoxy-ethyl)-1H-pyrrolo[2,3-b]pyridin-2-yl]-methanone dihydrohydrochloride, dihydrochloride]
5 | – | 1.1 µM | COCCn1c(C(=O)N2CCC(c3cc(CN)ccc3F)CC2)cc2cnccc21 [Example 4, [4-(5-Aminomethyl-2-fluoro-phenyl)-piperidin-1-yl]-[1-(2-methoxy-ethyl)-1H-pyrrolo[3,2-c]pyridin-2-yl]-methanone hydrochloride]
6 | – | 0.22 µM | NCc1ccc(F)c(C2CCN(C(=O)c3c[nH]c4cnccc34)CC2)c1 [Example 5, [4-(5-Aminomethyl-2-fluoro-phenyl)-piperidin-1-yl]-(1H-pyrrolo[2,3-c]pyridin-3-yl)-methanone dihydrochloride]
7 | – | 0.099 µM | COCCn1cc(C(=O)N2CCC(c3cccc(CN)c3)CC2)c2ccncc21 [Example 8, [4-(3-Aminomethyl-phenyl)-piperidin-1-yl]-[1-(2-methoxy-ethyl)-1H-pyrrolo[2,3-c]pyridin-3-yl]-methanone dihydrochloride]
8 | – | 0.035 µM | COCCn1cc(C(=O)N2CCC(c3cc(CN)ccc3F)CC2)c2ccncc21 [Example 9, [4-(5-Aminomethyl-2-fluoro-phenyl)-piperidin-1-yl]-[1-(2-methoxy-ethyl)-1H-pyrrolo[2,3-c]pyridin-3-yl]-methanone dihydrochloride]
9 | – | 0.18 µM | COCCn1cc(C(=O)N2CCC(c3cc(CN)ccc3F)CC2)c2cnccc21 [Example 10, [4-(5-Aminomethyl-2-fluoro-phenyl)-piperidin-1-yl]-[1-(2-methoxy-ethyl)-1H-pyrrolo[3,2-c]pyridin-3-yl]-methanone dihydrochloride]
10 | – | 0.166 µM | COCCOc1nccc2c(C(=O)N3CCC(c4cc(CN)ccc4F)CC3)cn(CCOC)c12 [Example 11, [4-(5-Aminomethyl-2-fluoro-phenyl)-piperidin-1-yl]-[7-(2-methoxy-ethoxy)-1-(2-methoxy-ethyl)-1H-pyrrolo[2,3-c]pyridin-3-yl]-methanone dihydrochloride]
11 | – | 0.023 µM and 0.013 µM | COCCn1cc(C(=O)N2CCC(c3cc(CN)ccc3F)CC2)c2nccc(C)c21 [Example 12, [4-(5-Aminomethyl-2-fluoro-phenyl)-piperidin-1-yl]-[1-(2-methoxy-ethyl)-7-methyl-1H-pyrrolo[3,2-b]pyridin-3-yl]-methanone dihydrochloride]
12 | – | 0.025 µM | COCCn1cc(C(=O)N2CCC(c3cc(CN)ccc3F)CC2)c2ccnc(Cl)c21 [Example 13, [4-(5-Aminomethyl-2-fluoro-phenyl)-piperidin-1-yl]-[7-chloro-1-(2-methoxy-ethyl)-1H-pyrrolo[2,3-c]pyridin-3-yl]-methanone dihydrochloride]
13 | – | 0.025 µM | COCCn1cc(C(=O)N2CCC(c3cc(CN)ccc3F)CC2)c2ccnc(C)c21 [Example 14, [4-(5-Aminomethyl-2-fluoro-phenyl)-piperidin-1-yl]-[1-(2-methoxy-ethyl)-7-methyl-1H-pyrrolo[2,3-c]pyridin-3-yl]-methanone]
14 | – | 0.0099 µM | COCCn1cc(C(=O)N2CCC(c3cc(CN)ccc3F)CC2)c2nccc(OC)c21 [Example 15, [4-(5-Aminomethyl-2-fluoro-phenyl)-piperidin-1-yl]-[7-methoxy-1-(2-methoxy-ethyl)-1H-pyrrolo[3,2-b]pyridin-3-yl]-methanone dihydrochloride]
15 | – | 0.0029 µM | NCc1ccc(F)c(C2CCN(C(=O)c3cn(CCc4ccccc4)c4cccnc34)CC2)c1 [Example 16, [4-(5-Aminomethyl-2-fluoro-phenyl)-piperidin-1-yl]-(1-phenethyl-1H-pyrrolo[3,2-b]pyridin-3-yl)-methanone dihydrochloride]
16 | – | 0.29 µM | NCc1ccc(F)c(C2CCN(C(=O)c3cn(CCN4CCCCC4)c4cccnc34)CC2)c1 [Example 17, [4-(5-Aminomethyl-2-fluoro-phenyl)-piperidin-1-yl]-[1-(2-piperidin-1-yl-ethyl)-1H-pyrrolo[3,2-b]pyridin-3-yl]-methanone trihydrochloride]
17 | – | 0.277 µM | NCc1ccc(F)c(C2CCN(C(=O)c3cn(CCN4CCCC4)c4cccnc34)CC2)c1 [Example 18, [4-(5-Aminomethyl-2-fluoro-phenyl)-piperidin-1-yl]-[1-(2-pyrrolidin-1-yl-ethyl)-1H-pyrrolo[3,2-b]pyridin-3-yl]-methanone trihydrochloride]
18 | – | 0.203 µM | NCc1ccc(F)c(C2CCN(C(=O)c3c[nH]c4ncccc34)CC2)c1 [Example 19, [4-(5-Aminomethyl-2-fluoro-phenyl)-piperidin-1-yl]-(1H-pyrrolo[2,3-b]pyridin-3-yl)-methanone dihydrochloride]
19 | – | 0.092 µM | COCCn1cc(C(=O)N2CCC(c3cc(CN)ccc3F)CC2)c2cccnc21 [Example 20, [4-(5-Aminomethyl-2-fluoro-phenyl)-piperidin-1-yl]-[1-(2-methoxy-ethyl)-1H-pyrrolo[2,3-b]pyridin-3-yl]-methanone dihydrochloride]
